Test results: PubChem BioAssay (NCI)
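Interpolation was linear, between the two tested concentrations surrounding the appropriate level; five concentrations were tested over 48 hours in 96-well plates. GI50 = concentration required for 50% inhibition of growth. TGI marks complete inhibition of growth.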

Tests used:
Assay in all cases: growth of human tumour cells (NCI), 48 h
[1] = test system: HL-60(TB) leukemia
[2] = test system: UACC-257 melanoma
[3] = test system: HOP-92 NSCLC
[4] = test system: HCT-116 colon
[5] = test system: SK-OV-3 ovarian
[6] = test system: ACHN renal
[7] = test system: NCI-H460 lung
[8] = test system: SK-MEL-5 melanoma
[9] = test system: HCT-15 colon
[10] = test system: LOX IMVI melanoma
[11] = test system: KM12 colon
[12] = test system: A549 NSCLC
[13] = test system: U251 CNS
[14] = test system: MOLT-4 leukemia
[15] = test system: NCI/ADR-RES ovarian
[16] = test system: DU-145 prostate
[17] = test system: OVCAR-5 ovarian
[18] = test system: HCC-2998 colon
[19] = test system: UO-31 renal
[20] = test system: NCI-H226 lung
[21] = test system: SF-295 CNS
[22] = test system: A498 renal
[23] = test system: T-47D breast
[24] = test system: OVCAR-3 ovarian
[25] = test system: CAKI-1 renal
[26] = test system: 786-0 renal
[27] = test system: CCRF-CEM leukemia
[28] = test system: SF-539 CNS
[29] = test system: MCF7 breast
[30] = test system: SF-268 CNS
[31] = test system: NCI-H23 lung
[32] = test system: SNB-19 CNS
[33] = test system: TK-10 renal
[34] = test system: NCI-H522 lung
[35] = test system: SW-620 colon
[36] = test system: OVCAR-4 ovarian
[37] = test system: OVCAR-8 ovarian
[38] = test system: K-562 leukemia
[39] = test system: COLO 205 colon
[40] = test system: HS 578T breast
[41] = test system: MDA-MB-231 breast
[42] = test system: M14 melanoma
[43] = test system: HT29 colon
[44] = test system: MDA-MB-435
[45] = test system: MALME-3M melanoma
[46] = test system: RXF 393 renal
[47] = test system: BT-549 breast
[48] = test system: RPMI-8226 leukemia
[49] = test system: PC-3 prostate
[50] = test system: HOP-62 NSCLC
[51] = test system: SNB-75 CNS
[52] = test system: UACC-62 melanoma
[53] = test system: SK-MEL-28 melanoma
[54] = test system: SN12C renal
[55] = test system: SK-MEL-2 melanoma
[56] = test system: IGROV1 ovarian
[57] = test system: EKVX NSCLC

Q: For `Nc1ccccc1C#Cc1ccccc1C#CCCCCO`, which GI50 [1] is on record?
A: 23.2 µM

Q: And the TGI [1]?
A: 51.8 µM

Q: And the GI50 [2]?
A: 19.7 µM

Q: And the TGI [2]?
A: 50.9 µM

Q: What about the GI50 [3] of the same molecule?
A: 28.1 µM

Q: What about the TGI [3] of the same molecule?
A: 80.4 µM

Q: What about the GI50 [4] of the same molecule?
A: 12.9 µM

Q: And the TGI [4]?
A: 26.6 µM

Q: And the GI50 [5]?
A: > 100 µM

Q: What about the TGI [5] of the same molecule?
A: > 100 µM

Q: And the GI50 [6]?
A: 24.7 µM

Q: What about the TGI [6] of the same molecule?
A: 59 µM

Q: What about the GI50 [7] of the same molecule?
A: 30.5 µM

Q: And the TGI [7]?
A: > 100 µM

Q: What about the GI50 [8] of the same molecule?
A: 31.5 µM

Q: And the TGI [8]?
A: 94.3 µM

Q: And the GI50 [9]?
A: 19.8 µM

Q: And the TGI [9]?
A: 42.5 µM

Q: And the GI50 [10]?
A: 17 µM

Q: And the TGI [10]?
A: 32.6 µM

Q: And the GI50 [11]?
A: 16.9 µM

Q: And the TGI [11]?
A: 48.4 µM

Q: And the GI50 [12]?
A: 18 µM

Q: And the TGI [12]?
A: 45 µM

Q: And the GI50 [13]?
A: 22.6 µM

Q: And the TGI [13]?
A: 47.1 µM

Q: And the GI50 [14]?
A: 22.7 µM

Q: And the TGI [14]?
A: 68.1 µM

Q: And the GI50 [15]?
A: 14.4 µM

Q: What about the TGI [15] of the same molecule?
A: 39.4 µM

Q: And the GI50 [16]?
A: 28.2 µM

Q: What about the TGI [16] of the same molecule?
A: > 100 µM

Q: And the GI50 [17]?
A: 25.6 µM

Q: What about the TGI [17] of the same molecule?
A: 64.4 µM

Q: What about the GI50 [18] of the same molecule?
A: 14.6 µM

Q: And the TGI [18]?
A: 30.1 µM

Q: What about the GI50 [19] of the same molecule?
A: 20.3 µM

Q: What about the TGI [19] of the same molecule?
A: 54.8 µM

Q: And the GI50 [20]?
A: 27.4 µM

Q: And the TGI [20]?
A: 61.3 µM

Q: And the GI50 [21]?
A: 29.2 µM

Q: And the TGI [21]?
A: 81.2 µM

Q: And the GI50 [22]?
A: 21.9 µM

Q: And the TGI [22]?
A: 77.8 µM

Q: And the GI50 [23]?
A: 30.3 µM

Q: What about the TGI [23] of the same molecule?
A: > 100 µM

Q: And the GI50 [24]?
A: 25.7 µM

Q: And the TGI [24]?
A: 63.4 µM

Q: And the GI50 [25]?
A: 22.8 µM

Q: What about the TGI [25] of the same molecule?
A: 67.1 µM

Q: And the GI50 [26]?
A: 16 µM

Q: What about the TGI [26] of the same molecule?
A: 37.7 µM

Q: What about the GI50 [27] of the same molecule?
A: 23.2 µM

Q: What about the TGI [27] of the same molecule?
A: 78.7 µM

Q: What about the GI50 [28] of the same molecule?
A: 19 µM

Q: And the TGI [28]?
A: 42.8 µM

Q: What about the GI50 [29] of the same molecule?
A: 60.8 µM

Q: What about the TGI [29] of the same molecule?
A: > 100 µM

Q: And the GI50 [30]?
A: 33.9 µM

Q: And the TGI [30]?
A: > 100 µM

Q: What about the GI50 [31] of the same molecule?
A: 24.4 µM

Q: What about the TGI [31] of the same molecule?
A: 58.1 µM

Q: What about the GI50 [32] of the same molecule?
A: 35.7 µM

Q: And the TGI [32]?
A: > 100 µM

Q: What about the GI50 [33] of the same molecule?
A: 27.5 µM

Q: What about the TGI [33] of the same molecule?
A: 91.5 µM

Q: And the GI50 [34]?
A: 14.3 µM

Q: And the TGI [34]?
A: 31.2 µM

Q: What about the GI50 [35] of the same molecule?
A: 25.1 µM

Q: What about the TGI [35] of the same molecule?
A: 77.3 µM

Q: What about the GI50 [36] of the same molecule?
A: 34.1 µM

Q: What about the TGI [36] of the same molecule?
A: 70.6 µM

Q: And the GI50 [37]?
A: 20.3 µM

Q: And the TGI [37]?
A: 49.4 µM

Q: And the GI50 [38]?
A: 19.1 µM

Q: And the TGI [38]?
A: 58.3 µM

Q: And the GI50 [39]?
A: 23.7 µM

Q: What about the TGI [39] of the same molecule?
A: 59.3 µM

Q: What about the GI50 [40] of the same molecule?
A: 35.8 µM

Q: And the TGI [40]?
A: > 100 µM

Q: And the GI50 [41]?
A: 16.2 µM

Q: What about the TGI [41] of the same molecule?
A: 37 µM

Q: What about the GI50 [42] of the same molecule?
A: 17.1 µM

Q: What about the TGI [42] of the same molecule?
A: 36.2 µM

Q: And the GI50 [43]?
A: 15.9 µM

Q: What about the TGI [43] of the same molecule?
A: 31.1 µM

Q: And the GI50 [44]?
A: 10.3 µM

Q: And the TGI [44]?
A: 53.9 µM

Q: And the GI50 [45]?
A: 12.4 µM

Q: What about the TGI [45] of the same molecule?
A: 44.4 µM

Q: And the GI50 [46]?
A: 5.73 µM

Q: What about the TGI [46] of the same molecule?
A: 26.1 µM

Q: And the GI50 [47]?
A: 23.2 µM

Q: What about the TGI [47] of the same molecule?
A: 76.5 µM

Q: And the GI50 [48]?
A: 29.8 µM

Q: And the TGI [48]?
A: 72.2 µM

Q: What about the GI50 [49] of the same molecule?
A: 27.8 µM

Q: And the TGI [49]?
A: 99.4 µM

Q: And the GI50 [50]?
A: 10.9 µM

Q: What about the TGI [50] of the same molecule?
A: 33.5 µM

Q: And the GI50 [51]?
A: 11.3 µM

Q: And the TGI [51]?
A: 33.6 µM

Q: What about the GI50 [52] of the same molecule?
A: 11.9 µM

Q: And the TGI [52]?
A: 32.5 µM

Q: What about the GI50 [53] of the same molecule?
A: 28.4 µM

Q: And the TGI [53]?
A: 49.7 µM

Q: What about the GI50 [54] of the same molecule?
A: 2800 nM

Q: And the TGI [54]?
A: 9.49 µM

Q: What about the GI50 [55] of the same molecule?
A: 28.4 µM

Q: What about the TGI [55] of the same molecule?
A: > 100 µM

Q: What about the GI50 [56] of the same molecule?
A: 17.5 µM

Q: And the TGI [56]?
A: 46.7 µM

Q: What about the GI50 [57] of the same molecule?
A: 29.1 µM

Q: And the TGI [57]?
A: 96.7 µM
